Experimental data reported in US20210317140A1, “Heterocyclic Compounds and Methods of Use” (MEDIVATION TECHNOLOGIES, INC, priority 2013, published 2021).
“And” between values parts separate entries of the source, which are not always exact repeats. Equal entries are not always repeated.

Assays:
BTK = target: T1, BTK (Homo sapiens, UniProt Q06187); test: BTK kinase assay (HotSpot, 33P ATP); type: biochemical; details: for IC50: 10 dose IC50, 10 μM ATP; for BTK @ 0.1 μM (% Inh): 0.1 μM compound; for BTK @ 0.1 μM (% Inh) / BTK @ 0.01 μM (% Inh) / BTK @ 1 μM (% Inh): 10 μM ATP; for BTK @ 0.01 μM (% Inh): 0.01 μM compound; for BTK @ 1 μM (% Inh): 1 μM compound
T1 construct: purchased Reaction Biology Corporation
T1 sequence (Q06187 whole entry): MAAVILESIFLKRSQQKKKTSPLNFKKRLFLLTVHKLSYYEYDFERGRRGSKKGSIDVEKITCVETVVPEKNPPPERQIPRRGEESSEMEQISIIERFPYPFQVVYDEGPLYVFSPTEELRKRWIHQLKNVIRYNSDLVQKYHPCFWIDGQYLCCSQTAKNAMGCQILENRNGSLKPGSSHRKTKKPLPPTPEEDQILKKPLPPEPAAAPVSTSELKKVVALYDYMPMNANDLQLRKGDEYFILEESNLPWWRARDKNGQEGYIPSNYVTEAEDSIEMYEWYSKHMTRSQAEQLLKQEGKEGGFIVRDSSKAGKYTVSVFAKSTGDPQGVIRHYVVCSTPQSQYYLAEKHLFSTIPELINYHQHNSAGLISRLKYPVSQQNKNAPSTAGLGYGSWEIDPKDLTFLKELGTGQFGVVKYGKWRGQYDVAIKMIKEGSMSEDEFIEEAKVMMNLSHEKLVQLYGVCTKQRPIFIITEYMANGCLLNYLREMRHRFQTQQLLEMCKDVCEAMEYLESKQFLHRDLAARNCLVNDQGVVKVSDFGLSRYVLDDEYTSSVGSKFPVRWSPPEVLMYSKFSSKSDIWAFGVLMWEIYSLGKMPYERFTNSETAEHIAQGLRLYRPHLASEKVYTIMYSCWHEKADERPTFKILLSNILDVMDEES
Procedure: (§1) Compounds of the invention were profiled in a 10 dose IC50 panel against BTK and PI3Kδ, both provided by Reaction Biology Corporation.
BTK assay: In vitro profiling protein kinases was performed using the “HotSpot” assay platform. Briefly, specific kinase/substrate pairs along with required cofactors were prepared in reaction buffer. Compounds were prepared as 10 mM stock solutions in DMSO. Compounds were delivered into the reaction, followed 15-20 minutes later by addition of a mixture of ATP (Sigma, St. Louis Mo.) and ^33P ATP (Perkin Elmer, Waltham Mass.) to a final concentration of 10 μM. […] IC50 values and curve fits were obtained using Prism (GraphPad Software). Buffer Conditions: 20 mM Hepes (pH 7.5), 10 mM MgCl2, 1 mM EGTA, 0.02% Brij35, 0.02 mg/mL BSA, 0.1 mM Na3VO4, 2 mM DTT, 1% DMSO.

PI3Kδ = target: T2, PI3Kδ (Homo sapiens, UniProt O00329); test: PI3Kδ kinase assay (HTRF, PIP3 detection); type: biochemical; details: for IC50: 10 dose IC50, 10 μM ATP; for PI3Kδ @ 0.1 μM (% Inh): 0.1 μM compound; for PI3Kδ @ 0.1 μM (% Inh) / PI3Kδ @ 0.01 μM (% Inh) / PI3Kδ @ 1 μM (% Inh): 10 μM ATP; for PI3Kδ @ 0.01 μM (% Inh): 0.01 μM compound; for PI3Kδ @ 1 μM (% Inh): 1 μM compound
T2 construct: purchased Reaction Biology Corporation
T2 sequence (O00329 whole entry): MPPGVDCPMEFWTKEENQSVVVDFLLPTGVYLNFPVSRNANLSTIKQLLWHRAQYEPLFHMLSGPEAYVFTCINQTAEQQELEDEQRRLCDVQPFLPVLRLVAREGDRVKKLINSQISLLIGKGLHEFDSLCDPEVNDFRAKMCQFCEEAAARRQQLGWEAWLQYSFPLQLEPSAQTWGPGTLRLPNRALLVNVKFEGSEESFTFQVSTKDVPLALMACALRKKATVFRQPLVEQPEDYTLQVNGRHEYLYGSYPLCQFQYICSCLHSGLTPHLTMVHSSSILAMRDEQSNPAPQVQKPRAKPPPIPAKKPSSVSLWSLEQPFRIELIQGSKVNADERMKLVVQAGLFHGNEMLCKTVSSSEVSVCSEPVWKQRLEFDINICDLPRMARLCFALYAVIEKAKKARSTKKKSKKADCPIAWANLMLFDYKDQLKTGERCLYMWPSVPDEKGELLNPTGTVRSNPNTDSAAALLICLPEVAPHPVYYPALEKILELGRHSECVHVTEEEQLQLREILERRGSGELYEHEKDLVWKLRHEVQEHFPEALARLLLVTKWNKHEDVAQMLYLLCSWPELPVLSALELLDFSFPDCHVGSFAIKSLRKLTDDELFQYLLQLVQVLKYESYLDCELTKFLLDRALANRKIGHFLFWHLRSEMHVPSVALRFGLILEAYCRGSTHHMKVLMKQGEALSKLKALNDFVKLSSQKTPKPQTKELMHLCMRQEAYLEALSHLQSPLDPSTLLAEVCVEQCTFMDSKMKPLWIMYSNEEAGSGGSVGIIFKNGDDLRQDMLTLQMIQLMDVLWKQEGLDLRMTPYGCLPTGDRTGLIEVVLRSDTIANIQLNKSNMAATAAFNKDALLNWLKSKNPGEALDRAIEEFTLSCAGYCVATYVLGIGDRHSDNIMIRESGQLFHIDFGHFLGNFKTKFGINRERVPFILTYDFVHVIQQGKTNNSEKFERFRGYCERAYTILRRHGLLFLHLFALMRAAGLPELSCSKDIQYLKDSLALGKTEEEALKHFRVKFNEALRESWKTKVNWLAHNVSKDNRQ
T2 sequence (P27986 whole entry partner): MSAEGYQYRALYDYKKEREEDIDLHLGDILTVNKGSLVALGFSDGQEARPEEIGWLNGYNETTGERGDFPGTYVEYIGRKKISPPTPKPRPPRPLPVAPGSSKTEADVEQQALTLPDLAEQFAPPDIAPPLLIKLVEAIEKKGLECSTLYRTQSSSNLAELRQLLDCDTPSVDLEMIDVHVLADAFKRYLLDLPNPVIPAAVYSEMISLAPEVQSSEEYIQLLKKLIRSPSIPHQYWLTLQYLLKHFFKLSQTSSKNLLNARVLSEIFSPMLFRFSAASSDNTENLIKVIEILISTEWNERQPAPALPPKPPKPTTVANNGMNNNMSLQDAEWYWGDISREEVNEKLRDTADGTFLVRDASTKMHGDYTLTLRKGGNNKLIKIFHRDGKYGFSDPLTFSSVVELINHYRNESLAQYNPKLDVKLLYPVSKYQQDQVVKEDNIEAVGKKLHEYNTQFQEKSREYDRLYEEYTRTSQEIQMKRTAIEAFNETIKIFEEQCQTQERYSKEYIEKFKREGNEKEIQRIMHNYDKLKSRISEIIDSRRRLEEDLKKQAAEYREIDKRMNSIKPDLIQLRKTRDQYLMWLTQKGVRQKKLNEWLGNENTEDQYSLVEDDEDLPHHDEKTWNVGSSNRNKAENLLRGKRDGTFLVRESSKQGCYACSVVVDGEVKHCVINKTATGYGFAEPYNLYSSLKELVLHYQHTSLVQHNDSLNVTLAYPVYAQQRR
From the text: as §1
PI3Kδ assay: The PIP3 product is detected by displacement of biotin-PIP3 from an energy transfer complex consisting of Europium labeled anti-GST monoclonal antibody, a GST-tagged pleckstrin homology (PH) domain, biotinylated PIP3 and Streptavidin-Allophycocyanin (APC). […] The PIP3 product formed by PI 3-Kinase(h) activity displaces biotin-PIP3 from the complex resulting in a loss of energy transfer and thus a decrease in signal. This is a 3-step reaction: First, the kinase reaction with PIP2 substrate is carried out in the presence of ATP (10 μM), and the reaction is quenched with stop Solution, and then finally detect by adding Detection Mixture followed by incubation (10 min). Reaction procedure: 1) Prepare substrate in freshly prepared Reaction Buffer. 2) Deliver kinase into the substrate solution and gently mix. 3) Deliver compounds in 100% DMSO (1 μM) into the kinase reaction mixture by Acoustic technology (Echo550; nanoliter range), incubate for 10 min at RT. 4) Deliver ATP into the reaction mixture to initiate the reaction. 5) Incubate for 30 min at 30° C. 6) Quench the reaction with Stop Solution. 7) Add Detection Mixture, and incubate for overnight. […] The emission ratio is converted into μM PIP3 production based on PIP3 standard curves. The nonlinear regression to obtain the standard curve and IC50 values are performed using Graphpad Prism software. Assay Buffer: HEPES 50 mM (pH7.0), NaN3 0.02%, BSA 0.01%, Orthovanadate 0.1 mM, 1% DMSO. Detection buffer: HEPES 10 mM (pH7.0), BSA 0.02%, KF 0.16 M, EDTA 4 mM. Substrate: 10 μM PIP2 substrate (PI(4,5)P2).

Compound	IC50 (BTK)	IC50 (PI3Kδ)	BTK @ 0.1 μM (% Inh) (BTK)	PI3Kδ @ 0.1 μM (% Inh) (PI3Kδ)	BTK @ 0.01 μM (% Inh) (BTK)	PI3Kδ @ 0.01 μM (% Inh) (PI3Kδ)	BTK @ 1 μM (% Inh) (BTK)	PI3Kδ @ 1 μM (% Inh) (PI3Kδ)
Nc1ncnc2c1c(-c1ccc(O)c(F)c1)nn2C1CCc2ccccc2C1 (centres unmarked) [compound 22, 4-(4-amino-1-(1,2,3,4-tetrahydronaphthalen-2-yl)-1H-pyrazolo[3,4-d]pyrimidin-3-yl)-2-fluorophenol]	293 nM	39.6 nM						
Nc1ncnc2c1c(-c1cnc3[nH]ccc3c1)nn2C1CCc2ccccc2C1 (racemic) [compound 16, 3-(1H-pyrrolo[2,3-b]pyridin-5-yl)-1-(1,2,3,4-tetrahydronaphthalen-2-yl)-1H-pyrazolo[3,4-d]pyrimidin-4-amine]			24.0	51.94				
COc1cc(-c2nn(C3Cc4ccccc4C3)c3ncnc(N)c23)cc(F)c1F [Compound No. 91, 3-(3,4-difluoro-5-methoxyphenyl)-1-(2,3-dihydro-1H-inden-2-yl)-1H-pyrazolo[3,4-d]pyrimidin-4-amine]			33.72	19.59	8	−1.19		
Nc1nccn2c(C3Cc4ccccc4C3)nc(-c3cc(O)c(F)c(F)c3)c12 [compound 140, 5-[8-amino-3-(2,3-dihydro-1H-inden-2-yl)imidazo[1,5-a]pyrazin-1-yl]-2,3-difluorophenol]			96.04	79.18	83.98	31.54		
Nc1ncnc2c1c(-c1cc(O)cc(OC(F)(F)F)c1)nn2C1Cc2ccccc2C1 [Compound No. 72, 3-[4-amino-1-(2,3-dihydro-1H-inden-2-yl)-1H-pyrazolo[3,4-d]pyrimidin-3-yl]-5-(trifluoromethoxy)phenol]			6.81	55.46			7.63	85.89
Nc1ncnc2c1c(-c1cc(O)c(F)c(F)c1)c(F)n2C1Cc2ccccc2C1 [compound 136, 5-[4-amino-7-(2,3-dihydro-1H-inden-2-yl)-6-fluoro-7H-pyrrolo[2,3-d]pyrimidin-5-yl]-2,3-difluorophenol]			93.64	80.15	72.51	38.49		
Nc1ncnc2c1c(-c1ccc(C(F)(F)F)c(OCc3ccccc3)c1)nn2C1Cc2ccccc2C1 [Compound No. 43, 3-[3-(benzyloxy)-4-(trifluoromethyl)phenyl]-1-(2,3-dihydro-1H-inden-2-yl)-1H-pyrazolo[3,4-d]pyrimidin-4-amine]			3.54	11.31			−0.8	11.07
NC(=O)c1cccc(-c2nn(C3CCc4ccccc4C3)c3ncnc(N)c23)c1 (centres unmarked) [compound 27, 3-(4-amino-1-tetralin-2-yl-pyrazolo[3,4-d]pyrimidin-3-yl)benzamide]			13.54	4.7				
Nc1ncnc2c1c(-c1cn[nH]c1)nn2C1CCc2ccccc2C1 (racemic) [compound 20, 3-(1H-pyrazol-4-yl)-1-(1,2,3,4-tetrahydronaphthalen-2-yl)-1H-pyrazolo[3,4-d]pyrimidin-4-amine]	2020 nM	157 nM						
COc1ccc(-c2nn(C3CCCc4ccccc43)c3ncnc(N)c23)cc1OC (centres unmarked) [compound 33, 3-(3,4-dimethoxyphenyl)-1-(1,2,3,4-tetrahydronaphthalen-1-yl)-1H-pyrazolo[3,4-d]pyrimidin-4-amine]			7.04	27.41				
Nc1ncnc2c1c(-c1ccc3cc[nH]c3c1)nn2C1CCc2ccccc21 (centres unmarked) [compound 37, 1-(2,3-dihydro-1H-inden-1-yl)-3-(1H-indol-6-yl)-1H-pyrazolo[3,4-d]pyrimidin-4-amine]			29.59	15.52				
Nc1ncnc2c1c(-c1ccc3cn[nH]c3c1)nn2C1CCc2ccccc2C1 (racemic) [compound 9, 3-(1H-indazol-6-yl)-1-(1,2,3,4-tetrahydronaphthalen-2-yl)-1H-pyrazolo[3,4-d]pyrimidin-4-amine]			15.85	44.86				
COc1cc(F)cc(-c2nn(C3Cc4ccccc4C3)c3ncnc(N)c23)c1 [compound 5, 1-(2,3-dihydro-1H-inden-2-yl)-3-(3-fluoro-5-methoxyphenyl)-1H-pyrazolo[3,4-d]pyrimidin-4-amine]	1970 nM and 1100 nM	2790 nM and 1220 nM	26.26	25.0			76.16	54.63
Nc1ncnc2c1c(-c1ccc(Cl)nc1)nn2C1CCc2ccccc2C1 (centres unmarked) [compound 25, 3-(6-chloro-3-pyridyl)-1-tetralin-2-yl-pyrazolo[3,4-d]pyrimidin-4-amine]			20.21	27.39				

Further lines, results first:

IC50 (BTK)	IC50 (PI3Kδ)	BTK @ 0.1 μM (% Inh) (BTK)	PI3Kδ @ 0.1 μM (% Inh) (PI3Kδ)	BTK @ 0.01 μM (% Inh) (BTK)	PI3Kδ @ 0.01 μM (% Inh) (PI3Kδ)	BTK @ 1 μM (% Inh) (BTK)	PI3Kδ @ 1 μM (% Inh) (PI3Kδ)	Compound
1260 nM	362 nM	21.32	39.05			66.77	79.98	COc1cc(-c2nn(C3Cc4ccccc4C3)c3ncnc(N)c23)ccn1 [Compound No. 50, 1-(2,3-dihydro-1H-inden-2-yl)-3-(2-methoxypyridin-4-yl)-1H-pyrazolo[3,4-d]pyrimidin-4-amine]
575 nM	645 nM	30.42	30.15			76.1	81.32	Nc1ncnc2c1c(-c1ccccc1CO)nn2C1Cc2ccccc2C1 [Compound No. 53, {2-[4-amino-1-(2,3-dihydro-1H-inden-2-yl)-1H-pyrazolo[3,4-d]pyrimidin-3-yl]phenyl}methanol]
		9.61	78.41			48.47	100.0	Nc1ncnc2c1c(-c1ccc3[nH]cnc3c1)nn2C1Cc2ccccc2C1 [Compound No. 47, 3-(1H-1,3-benzodiazol-5-yl)-1-(2,3-dihydro-1H-inden-2-yl)-1H-pyrazolo[3,4-d]pyrimidin-4-amine]
		30.58	17.95	8.84	0.76			Nc1ncnc2c1c(-c1ccc(F)c(F)c1)nn2C1Cc2ccccc2C1 [Compound No. 89, 3-(3,4-difluorophenyl)-1-(2,3-dihydro-1H-inden-2-yl)-1H-pyrazolo[3,4-d]pyrimidin-4-amine]
		9.25	6.493			24.21	37.25	Nc1ncnc2c1c(-c1ccnc(O)c1)nn2C1Cc2ccccc2C1 [Compound No. 52, 4-[4-amino-1-(2,3-dihydro-1H-inden-2-yl)-1H-pyrazolo[3,4-d]pyrimidin-3-yl]pyridin-2-ol]
25.3 nM	461 nM	69.93	17.08			95.07	53.69	COc1cc(-c2nn(C3Cc4ccccc4C3)c3ncnc(N)c23)ccc1N [Compound No. 66, 3-(4-amino-3-methoxyphenyl)-1-(2,3-dihydro-1H-inden-2-yl)-1H-pyrazolo[3,4-d]pyrimidin-4-amine]
		29.9						COc1ccc(-c2nn(C3Cc4ccccc4C3)c3ncnc(N)c23)cc1OC [Compound No. 35, 1-(2,3-dihydro-1H-inden-2-yl)-3-(3,4-dimethoxyphenyl)-1H-pyrazolo[3,4-d]pyrimidin-4-amine]
		18.18	4.96			54.62	43.86	Nc1ncnc2c1c(-c1cccc3[nH]ccc13)nn2C1Cc2ccccc2C1 [Compound No. 78, 1-(2,3-dihydro-1H-inden-2-yl)-3-(1H-indol-4-yl)-1H-pyrazolo[3,4-d]pyrimidin-4-amine]
